Reference: patent EP0529636B1, “Novel isatinoxime derivatives, their preparation and use” (NEUROSEARCH A/S, priority 1991, dated 1993)

What was measured:
[1] = target: AMPA ((RS)-α-amino-3-hydroxy-5-methyl-4-isoxazolepropionic acid) binding site; experiment: AMPA binding assay (T. Honoré et al., Neuroscience Letters 54, 27-32 (1985))
Procedure: In the same assay 1,2,3,6,7,8-hexahydro-3-(hydroxyimino)-N,N,7-trimethyl-2-oxobenzo[2,1-b:3,4-c']dipyrrole-5-sulfonamide has an IC50 of 0.3 µM.

[2] = system: AMPA-induced clonic seizures; experiment: AMPA-induced clonic seizures (AMPA seizure test); format: in vivo, female NMRI mice; conditions: Mus musculus, iv; test compound i.v. 5 min before 0.3 µg icv AMPA; dose inhibiting 50% of the mice from having clonic seizures
Procedure: AMPA given icv (intracerebroventricular) (15 µg/kg) NMRI to mice induces clonic seizures which should be inhibited by non-NMDA receptor excitatory amino acid antagonists.
Test compound was given i.v. 5 min (or p.o. 30 min) before a 0.3 µg icv administration of AMPA to 10 female NMRI mice (weighing 24-26 g) per dose. The number of mice experiencing clonic seizures within the next 5 min was noted. An ED50 value was calculated as the dose inhibiting 50% of the mice from having clonic seizures.

Row | IC50 [1] | Structure (SMILES) | ED50 [2]
1 | 300 nM | CN1Cc2c(S(=O)(=O)N(C)C)cc3c(c2C1)NC(=O)C3=NO [1,2,3,6,7,8-hexahydro-3-(hydroxyimino)-N,N,7-trimethyl-2-oxobenzo[2,1-b:3,4-c']dipyrrole-5-sulfonamide] | 
2 | 4000 nM | O=C1CCCc2c3c(cc([N+](=O)[O-])c2N1)C(=NO)C(=O)N3 [5-nitro-1H,6H-2,3,7,8,9,10-hexahydro-2,3,7-trioxo-azepino[2,3-g]indole-3-oxime] | 
3 | 1000 nM | CN1Cc2ccc3c(c2C1)NC(=O)C3=NO [7-methyl-1,6,7,8-tetrahydrobenzo[2,1-b:3,4-c']dipyrrole-2,3-dione-3-oxime] | 8 mg/kg
